Experimental data published in US20260337240A1, “CC16-DERIVED ANALOGS FOR THE TREATMENT OF INFLAMMATORY AND OBSTRUCTIVE LUNG DISEASES” (priority 2023, published 2026).
Non-standard residues stand in square brackets, D forms with d. Residues, ends and D or L forms follow the SMILES beside them. Nle = CCCC[C@H](N)C(=O)O

Tests used:
[1] = tested on: human Rhinovirus in primary nasal cells; test: Peptidomimetic screen in human nasal cells: RV infectivity (RT-PCR); format: cell-based; details: for RV infectivity / RV inhibition activity: RV MOI 0.1 for 4 hrs, then compound for 48 hrs, triplicate, RT-PCR (FIG. 10 top panel)
From the text: (§1) Top panel, RV infectivity; middle panel, IFN-lamda; bottom panel, TNF-alpha levels. All determined by RT-PCR.
(§2) CC16-derived peptidomimetics provide protection against human Rhinovirus infection in airway epithelial cells. Preliminary studies were done in primary nasal cells grown at an ALI. Transwell cells were challenged with RV ([…] (MOI) 0.1) for 4 hrs, after which external RV was washed from the cell surface and test compounds added; uninfected baseline controls will be treated the same by pipetting media. Cells are allowed to incubate for an additional 48 hrs. Three readouts were used for analysis in this screen: RV infectivity, INF-lambda induction, and TNF-alpha induction. An optimal compound for this screening will have a reduction in RV infection, maintain high levels of INF-lambda, and have low levels of TNF-alpha.
(§3) RV burden, INF-lambda, and TNF-alpha are assessed by RT-PCR. Those compounds moving forward will be tested in a dose-response to determine optimal concentrations needed for IC50.

[2] = tested on: TNF-alpha; test: Peptidomimetic screen in human nasal cells: TNF-alpha induction (RT-PCR); format: cell-based; details: 2.5 μM; RV MOI 0.1 for 4 hrs, then compound for 48 hrs; RT-PCR (FIG. 10 bottom panel)
From the text: as §1, §2, §3

[3] = tested on: INF-lambda; test: Peptidomimetic screen in human nasal cells: INF-lambda induction (RT-PCR); format: cell-based; details: 2.5 μM; RV MOI 0.1 for 4 hrs, then compound for 48 hrs; RT-PCR (FIG. 10 middle panel)
From the text: as §1, §2, §3

[4] = tested on: RV in primary human nasal epithelial cells (HNECs); test: RV infection in primary human nasal epithelial cells (HNECs) at ALI, post-infection treatment (qPCR); format: cell-based; details: 25 g/ml (so in the source); added after 4 hrs RV infection, 48 hrs incubation; non-asthma participants; p<0.01 by ANOVA (FIG. 6)
Procedure: Cells were grown at ALI for 3 weeks and infected with RV for 4 hours, after which they were washed and allowed to incubate for 48 hours with or without rCC16 or C836. RV was determined by qPCR. Each dot is a technical replicate, ** p<0.01 by ANOVA.
rCC16 and CC16-derived peptidomimetics reduce RV infection in human nasal cells. In order to test if rCC16 added exogenously could protect against RV viral infection, primary human nasal epithelial cells (HNECs) were grown from non-asthma participants at an air-liquid interface (ALI) for 21 days. On the day of infection, RV was added to the apical surface and allowed to incubate for 4 hrs, after which cells were gently washed with media, and either media alone, rCC16 (25 g/ml), or CC16-derived peptidomimetic, C836 (25 g/ml), were added and cells allowed to incubate for an additional 48 hrs. After harvest, RV infectivity was determined by PCR for RV.

[5] = tested on: airway hyperresponsiveness (AHR); test: Airway hyperresponsiveness (AHR) to methacholine in HDM-exposed Cc16^−/− mice (flexiVent); format: in vivo; details: oropharyngeal, approximately 1 hr after each HDM dose on days 0, 7, 14; methacholine 24 hrs after last HDM; p<0.05 at the highest dose (FIG. 9)
Procedure: C836 was delivered to the airways 2 hrs after each HDM challenge. AHR to methacholine was assessed 24 hrs after the last HDM challenge. * p<0.05 at the highest dose.
C836 reduces AHR in Cc16^−/− mice exposed to HDM. The activity of C836 was tested for its ability to provide protection in the allergic airway model induced by exposure to HDM. For this, CC16^−/− mice were used, and the C836 (or vehicle control) was delivered to the airway via the oropharyngeal method approximately 1 hr after each HDM dose on days 0, 7, and 14. Mice were assessed 24 hrs after the last HDM challenge by flexi Vent® and methacholine challenge.

[6] = tested on: house dust mite (HDM) allergic airway disease; neutrophils in lavage fluid; test: Neutrophil recruitment into the lung in HDM model, IV treatment; format: in vivo, mice; details: IV 2 hrs after each HDM challenge; lavage fluid 24 hrs after last HDM challenge; preliminary (FIG. 8 left)
Procedure: (§4) Left panel, C836, was delivered via IV 2 hrs after each HDM challenge. Cells in the lavage fluid were measured 24 hrs after the last HDM challenge. Right panel, baseline lung function, without methacholine provocation, as assessed in the mice receiving C836 IV, 24 hrs after the last HDM challenge. ** p<0.01, **** p<0.0001 by ANOVA.
Thus, a small peptidomimetic was designed based on the newly discovered LVD (leucine-valine-aspartic acid) integrin binding domain contained within the CC16 protein. The lead compound, C836, is a 17-mer containing the LVD integrin binding domain. […] Neutrophils, when present in the lungs of individuals with asthma, are typically associated with more severe and difficult to treat forms of the condition. In COPD, neutrophils are often highly destructive, releasing factors and enzymes that degrade the basement membrane and damage the delicate airway epithelium. Therefore, strategies to reduce neutrophil accumulation or activity in both asthma and COPD would provide significant benefits for overall lung health, potentially improving disease outcomes and reducing airway damage.

[7] = tested on: lung function in HDM-treated mice; test: Baseline lung function (FEV0.2, invasive PFT) without methacholine provocation in HDM-treated mice; format: in vivo; details: IV, 24 hrs after last HDM challenge (FIG. 8 right)
Procedure: as §4
Lung function tests are typically performed using methacholine provocation, which induces bronchoconstriction. However, the tests referenced here were conducted without provocation, meaning that when C836 was administered alongside an HDM challenge, it prevented the loss of lung function typically associated with HDM exposure. These tests were conducted at baseline, without the use of a bronchoconstrictor, similar to an asthma patient living a normal day without an attack.

[8] = tested on: human Rhinovirus (RV; RVIB); test: RV burden in CC16^−/− mice given rCC16 (RT-PCR); format: in vivo; details: female CC16^−/− mice; RV 4×10^7 PFU/50 μl intranasal; rCC16 given at time of infection; RT-PCR at 48 hrs; p<0.05 by t-test (FIG. 4)
Procedure: RT-PCR at 48 hrs. * p<0.05 by t-test.
rCC16 treatment decreases human Rhinovirus (RV; RVIB) burden in CC16^−/− mice: For these studies, female mice were infected with RV (4×10^7 plaque-forming unit (PFU)/50 μl) via intranasal instillation for 48 hrs, and mice were either given vehicle (saline) or rCC16 (human recombinant CC16) at the time of infection.

[9] = tested on: airway hyperresponsiveness and respiratory infections; test: rCC16 delivered intravenously (retro-orbital) or oropharyngeally: airway hyperresponsiveness and respiratory infections; format: in vivo; details: IV via retro-orbital injection or oropharyngeal delivery (both)
From the text: (§5) In the examples provided below, human recombinant CC16 (rCC16) was delivered either intravenously (IV) via retro-orbital injection or directly to the lungs through oropharyngeal delivery.

[10] = tested on: leukocyte recruitment into the lungs; test: rCC16 delivered intravenously or oropharyngeally: leukocyte recruitment into the lungs; format: in vivo; details: only intravenous delivery
From the text: as §5

[11] = tested on: respiratory challenges; details: direct delivery; cited from earlier work

Ac-Nle-Arg-Glu-Ala-Gly-Ala-Gln-Leu-Lys-Lys-Leu-Val-Asp-Thr-NH2 (Ac-[Nle]REAGAQLKKLVDT-NH2; SMILES CCCC[C@H](NC(C)=O)C(=O)N[C@@H](CCCNC(=N)N)C(=O)N[C@@H](CCC(=O)O)C(=O)N[C@@H](C)C(=O)NCC(=O)N[C@@H](C)C(=O)N[C@@H](CCC(N)=O)C(=O)N[C@@H](CC(C)C)C(=O)N[C@@H](CCCCN)C(=O)N[C@@H](CCCCN)C(=O)N[C@@H](CC(C)C)C(=O)N[C@H](C(=O)N[C@@H](CC(=O)O)C(=O)N[C@H](C(N)=O)[C@@H](C)O)C(C)C) [Compound 974]
RV infectivity / RV inhibition activity ([1]; 2.5 μM): had RV inhibition activity
TNF-alpha levels [2]: has a spike in TNF-alpha
INF-lambda levels [3]: maintain INF-lambda levels

CCCC[C@H](NC(=O)[C@H](CC(=O)O)NC(=O)[C@H](CCC(N)=O)NC(=O)[C@H](CC(=O)O)NC(C)=O)C(=O)N[C@@H](CCCNC(=N)N)C(=O)N[C@@H](CCC(=O)O)C(=O)N[C@@H](C)C(=O)NCC(=O)N[C@@H](C)C(=O)N[C@@H](CCC(N)=O)C(=O)N[C@@H](CC(C)C)C(=O)N[C@@H](CCCCN)C(=O)N[C@@H](CCCCN)C(=O)N[C@@H](CC(C)C)C(=O)N[C@H](C(=O)N[C@@H](CC(=O)O)C(=O)N[C@H](C(N)=O)[C@@H](C)O)C(C)C [Compound C836, DQD-Nle-REAGAQLKKLVDT] (Ac-DQD[Nle]REAGAQLKKLVDT-NH2)
RV infectivity / RV inhibition activity ([1]; 2.5 μM): have activity in reducing RV infectivity
reduction of RV infection in human nasal cells [4]: approximately 80%
airway hyperresponsiveness (AHR) compared to HDM-treated given vehicle [5]: significantly lower airway hyperresponsiveness (AHR)
neutrophils recruited into the lung during HDM challenge [6]: fewer neutrophils are recruited into the lung
loss of lung function as measured by FEV0.2 [7]: protective from loss of lung function

CCCC[C@H](NC(=O)[C@H](CC(=O)O)NC(=O)[C@H](CCC(N)=O)NC(=O)[C@H](CC(=O)O)NC(C)=O)C(=O)N[C@@H](CCCNC(=N)N)C(=O)N[C@@H](CCC(=O)O)C(=O)N[C@@H](C)C(=O)NCC(=O)N[C@@H](C)C(=O)N[C@@H](CCC(N)=O)C(=O)N[C@@H](CC(C)C)C(=O)N[C@@H](CCCCN)C(=O)N[C@@H](CCCCN)C(=O)N[C@@H](CC(C)C)C(=O)N[C@H](C(=O)N[C@@H](CC(=O)O)C(=O)O)C(C)C [Compound 970, Ac-Asp-Gln-Asp-Nle-Arg-Glu-Ala-Gly-Ala-Gln-Leu-Lys-Lys-Leu-Val-Asp-OH] (Ac-DQD[Nle]REAGAQLKKLVD-OH)
RV infectivity / RV inhibition activity ([1]; 2.5 μM): had RV inhibition activity

CCCC[C@H](NC(=O)[C@H](CC(=O)O)NC(=O)[C@H](CCC(N)=O)NC(=O)[C@H](CC(=O)O)NC(C)=O)C(=O)N[C@@H](CCCNC(=N)N)C(=O)N[C@@H](CCC(=O)O)C(=O)N[C@@H](C)C(=O)NCC(=O)N[C@@H](C)C(=O)N[C@@H](CCC(N)=O)C(=O)N[C@@H](CC(C)C)C(=O)N[C@@H](CCCCN)C(=O)N[C@@H](CCCCN)C(=O)N[C@@H](CC(C)C)C(=O)N[C@H](C(N)=O)C(C)C [Compound 971, Ac-Asp-Gln-Asp-Nle-Arg-Glu-Ala-Gly-Ala-Gln-Leu-Lys-Lys-Leu-Val-NH2] (Ac-DQD[Nle]REAGAQLKKLV-NH2)
RV infectivity / RV inhibition activity ([1]; 2.5 μM): had RV inhibition activity

CCCC[C@H](NC(=O)[C@H](CC(=O)O)NC(=O)[C@H](CCC(N)=O)NC(C)=O)C(=O)N[C@@H](CCCNC(=N)N)C(=O)N[C@@H](CCC(=O)O)C(=O)N[C@@H](C)C(=O)NCC(=O)N[C@@H](C)C(=O)N[C@@H](CCC(N)=O)C(=O)N[C@@H](CC(C)C)C(=O)N[C@@H](CCCCN)C(=O)N[C@@H](CCCCN)C(=O)N[C@@H](CC(C)C)C(=O)N[C@H](C(=O)N[C@@H](CC(=O)O)C(=O)N[C@H](C(N)=O)[C@@H](C)O)C(C)C [Compound 972, Ac-Gln-Asp-Nle-Arg-Glu-Ala-Gly-Ala-Gln-Leu-Lys-Lys-Leu-Val-Asp-Thr-NH2] (Ac-QD[Nle]REAGAQLKKLVDT-NH2)
RV infectivity / RV inhibition activity ([1]; 2.5 μM): had RV inhibition activity
overall outcome of the screen for the 3 factors (RV infectivity, INF-lambda, TNF-alpha) ([1]; 2.5 μM, RV-infected nasal cells): best candidate to move forward
INF-lambda levels [3]: maintain INF-lambda levels

B1: rCC16: human recombinant CC16 (club cell secretory protein) (protein, UniProt P11684 22-91, looked up)
Uteroglobin: EICPSFQRVIETLLMDTPSSYEAAMELFSPDQDMREAGAQLKKLVDTLPQKPRESIIKLMEKIAQSSLCN
RV burden compared to vehicle-treated mice [8]: significant reduction in RV
IC50 ([1]; rCC16, RV infection of nasal cells, read-out: dose found to be optimal to inhibit 50% of infection): 2500 nM
reduction of RV infection in human nasal cells [4]: approximately 80%
protection against airway hyperresponsiveness and respiratory infections [9]: effective in providing protection
leukocyte recruitment into the lungs [10]: reduce leukocyte recruitment into the lungs
protection during respiratory challenges [11]: protective

B2: rCC16 made at UA (MJ): standard control, rCC16 made at UA (MJ) (protein, UniProt P11684 22-91, looked up)
Uteroglobin: B1 Uteroglobin
RV infectivity / RV inhibition activity ([1]; 2.5 μM): have activity in reducing RV infectivity

B3: rCC16 from R&D: standard control, rCC16 from R&D (protein, UniProt P11684 22-91, looked up)
Uteroglobin: B1 Uteroglobin
RV infectivity / RV inhibition activity ([1]; 2.5 μM): have activity in reducing RV infectivity
